Data as given in publication PMC6934184, “Selective DNA-PKcs inhibition extends the therapeutic index of localized radiotherapy and chemotherapy” (The Journal of Clinical Investigation, 2019).

Biological target: T1, CSNK1D (CK1 delta) (Homo sapiens, UniProt P48730)
T1 construct: purchased Thermo Fisher Scientific (Life Technologies) SelectScreen
Assay: SelectScreen Z'LYTE
Assay type: biochemical
How it was run: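 SelectScreen broad panel; activity (Z'LYTE, Adapta) plus binding formats. ATP: Km app for CSF1R Z'LYTE; 10 for CAMK1 Adapta. Readout = % per kinase.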

T1 sequence (P48730 whole entry): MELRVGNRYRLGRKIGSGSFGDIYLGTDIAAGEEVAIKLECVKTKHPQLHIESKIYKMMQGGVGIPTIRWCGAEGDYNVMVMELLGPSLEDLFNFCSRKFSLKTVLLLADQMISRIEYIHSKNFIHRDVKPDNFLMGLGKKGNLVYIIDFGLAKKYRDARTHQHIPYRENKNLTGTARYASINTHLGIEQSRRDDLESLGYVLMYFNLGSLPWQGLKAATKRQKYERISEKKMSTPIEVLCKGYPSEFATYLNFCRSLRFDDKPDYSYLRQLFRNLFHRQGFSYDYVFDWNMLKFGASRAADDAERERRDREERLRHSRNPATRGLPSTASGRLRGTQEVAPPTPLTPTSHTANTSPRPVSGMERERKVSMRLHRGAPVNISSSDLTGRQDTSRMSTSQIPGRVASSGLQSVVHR

CN(C(=O)CN1CCOCC1)c1ccc2sc3c(-c4cccc5c(=O)cc(N6CC7CCC(C6)O7)oc45)cccc3c2c1 [NU5455]
inhibition at 1 µM: 2.6%
